This is an account of results in PubChem BioAssay AID330 (DTP/NCI, 2004).

The experiment concerns P388 leukemia ip, CD2F1 mice, survival T/C. Nature of the experiment: NCI In Vivo Anticancer Drug Screen. Data for tumor model P388 Leukemia (intraperitoneal) in CD2F1 (CDF1) mice. The note with it: endpoint: median survival time, higher = longer survival. Summed up:
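Mice carrying the transplanted tumor received test compound or vehicle. Survival was recorded in each group, and the value is the treated-group measurement divided by that of the vehicle-treated control group.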

Where [1] appears, read: dose: 12.5 mg/kg/injection, schedule: Q01DX009 (ip), vehicle: other.
Where [2] appears, read: dose: 25.0 mg/kg/injection, schedule: Q01DX009 (ip), vehicle: other.
[3] abbreviates: dose: 50.0 mg/kg/injection, schedule: Q01DX009 (ip), vehicle: saline with Tween-80.
[4] abbreviates: dose: 100.0 mg/kg/injection, schedule: Q01DX009 (ip), vehicle: saline with Tween-80.
Setting [5] is: dose: 100.0 mg/kg/injection, schedule: Q04DX003 (ip), vehicle: Klucel (hydroxypropylcellulose) (HPC).
Where [6] appears, read: dose: 200.0 mg/kg/injection, schedule: Q04DX003 (ip), vehicle: Klucel (hydroxypropylcellulose) (HPC).
Where [7] appears, read: dose: 400.0 mg/kg/injection, schedule: Q04DX003 (ip), vehicle: Klucel (hydroxypropylcellulose) (HPC).
Where [8] appears, read: dose: 50.0 mg/kg/injection, schedule: Q01DX009 (ip), vehicle: Klucel (hydroxypropylcellulose) (HPC).

Several values for one entry are separate records, joined by “and”; a condition that tells them apart may be missing. Equal values may be shown once. Inconclusive results and toxic doses are left out.

Turning to `Nc1ccc(Cl)cc1N`, the T/C was 105 % of control under setting [1]; 102 % of control (dose: 12.5 mg/kg/injection, schedule: Q01DX009 (ip), vehicle: saline with Tween-80); 100 % of control under setting [2]; 102 % of control and 104 % of control (dose: 25.0 mg/kg/injection, schedule: Q01DX009 (ip), vehicle: saline with Tween-80); 113 % of control (dose: 50.0 mg/kg/injection, schedule: Q01DX009 (ip), vehicle: other); 101 % of control and 107 % of control under setting [3]. Moreover, the T/C was 105 % of control (dose: 100.0 mg/kg/injection, schedule: Q01DX009 (ip), vehicle: other); 100 % of control and 105 % of control under setting [4]; 105 % of control (dose: 200.0 mg/kg/injection, schedule: Q01DX009 (ip), vehicle: other); 114 % of control and 121 % of control (dose: 200.0 mg/kg/injection, schedule: Q01DX009 (ip), vehicle: saline with Tween-80).

Take `O=C1C2C=CC(c3ccccc32)N1/C=C/c1ccccc1` (centres undefined): the T/C reads like this: under setting [5], 101 % of control; under setting [6], 99 % of control; under setting [7], 97 % of control.

On to `CCOC(=O)NNC1=C(CC(=O)c2ccccc2)C(=O)CC(C)(C)C1`, for which the T/C under setting [8] is 101 % of control; the T/C (dose: 100.0 mg/kg/injection, schedule: Q01DX009 (ip), vehicle: Klucel (hydroxypropylcellulose) (HPC)) was 102 % of control; the T/C (dose: 200.0 mg/kg/injection, schedule: Q01DX009 (ip), vehicle: Klucel (hydroxypropylcellulose) (HPC)) was 109 % of control.

For `CNC(=O)Nc1ccn(C(=O)NC)c(=O)n1`, the T/C was 114 % of control (dose: 100.0 mg/kg/injection, schedule: Q04DX002 (ip), vehicle: Klucel (hydroxypropylcellulose) (HPC)) and 120 % of control (dose: 200.0 mg/kg/injection, schedule: Q04DX002 (ip), vehicle: Klucel (hydroxypropylcellulose) (HPC)).

Turning to `Clc1cncc(N2CCNCC2)n1`, the T/C by setting is: (dose: 12.5 mg/kg/injection, schedule: Q01DX009 (ip), vehicle: Klucel (hydroxypropylcellulose) (HPC)) 100 % of control; (dose: 25.0 mg/kg/injection, schedule: Q01DX009 (ip), vehicle: Klucel (hydroxypropylcellulose) (HPC)) 99 % of control; under setting [8], 108 % of control and 91 % of control.

In the case of `COC(=O)C1(C)CCCC2(C)C3=C(CCC12)C(=O)c1occc1CC3` (centres undefined), the T/C is 100 % of control (dose: 0.37 mg/kg/injection, schedule: Q01DX009 (ip), vehicle: Klucel (hydroxypropylcellulose) (HPC)); 103 % of control (dose: 0.75 mg/kg/injection, schedule: Q01DX009 (ip), vehicle: Klucel (hydroxypropylcellulose) (HPC)); 100 % of control (dose: 1.5 mg/kg/injection, schedule: Q01DX009 (ip), vehicle: Klucel (hydroxypropylcellulose) (HPC)); 99 % of control (dose: 3.0 mg/kg/injection, schedule: Q01DX009 (ip), vehicle: Klucel (hydroxypropylcellulose) (HPC)); 108 % of control (dose: 6.0 mg/kg/injection, schedule: Q01DX009 (ip), vehicle: Klucel (hydroxypropylcellulose) (HPC)).

Regarding `CCN(CC)CCC(=O)c1cccc2ccccc12`, the T/C (dose: 25.0 mg/kg/injection, schedule: Q01DX005 (ip), vehicle: saline with Tween-80) is 100 % of control; the T/C (dose: 50.0 mg/kg/injection, schedule: Q01DX005 (ip), vehicle: saline with Tween-80) was 106 % of control; the T/C (dose: 100.0 mg/kg/injection, schedule: Q01DX005 (ip), vehicle: saline with Tween-80) was 102 % of control.

In the case of `CCOP(=O)(O)CP(=O)(O)OCC.CCOP(=O)(O)CP(=O)(O)OCC.[Cr]`, the T/C was 102 % of control (dose: 50.0 mg/kg/injection, schedule: Q04DX003 (ip), vehicle: saline with Tween-80); 98 % of control (dose: 100.0 mg/kg/injection, schedule: Q04DX003 (ip), vehicle: saline with Tween-80); 99 % of control (dose: 200.0 mg/kg/injection, schedule: Q04DX003 (ip), vehicle: saline with Tween-80).

Regarding `CC1=C(C(N)=O)C(c2ccccc2)NC(=S)N1` (centres undefined), the T/C (dose: 3.12 mg/kg/injection, schedule: Q01DX005 (ip), vehicle: Klucel (hydroxypropylcellulose) (HPC)) is 101 % of control; the T/C (dose: 6.25 mg/kg/injection, schedule: Q01DX005 (ip), vehicle: Klucel (hydroxypropylcellulose) (HPC)) is 95 % of control; the T/C (dose: 12.5 mg/kg/injection, schedule: Q01DX005 (ip), vehicle: Klucel (hydroxypropylcellulose) (HPC)) was 100 % of control; the T/C (dose: 25.0 mg/kg/injection, schedule: Q01DX005 (ip), vehicle: Klucel (hydroxypropylcellulose) (HPC)) was 100 % of control and 101 % of control (2×).

With `CN(C)c1c2ccccc2c(NC=O)c2ccccc12`, the T/C was 102 % of control (dose: 60.0 mg/kg/injection, schedule: Q01DX005 (ip), vehicle: Klucel (hydroxypropylcellulose) (HPC)); 95 % of control (dose: 120.0 mg/kg/injection, schedule: Q01DX005 (ip), vehicle: Klucel (hydroxypropylcellulose) (HPC)); 86 % of control (dose: 240.0 mg/kg/injection, schedule: Q01DX005 (ip), vehicle: Klucel (hydroxypropylcellulose) (HPC)).

For `CC(C)(C(=O)O)C(Nc1ncnc2c1ncn2C1OC(CO)C(O)C1O)C(=O)O` (centres undefined), the T/C (dose: 100.0 mg/kg/injection, schedule: Q04DX003 (ip), vehicle: saline) was 100 % of control and the T/C (dose: 200.0 mg/kg/injection, schedule: Q04DX003 (ip), vehicle: saline) is 106 % of control.

Consider `Cc1cc(=O)[nH]c2c(C)cccc12`, for which the T/C reads like this: under setting [5], 96 % of control; under setting [6], 98 % of control; under setting [7], 99 % of control.

`OCC1OC(n2cnc3c(=S)nc[nH]c32)CC1O` (centres undefined): the T/C is, setting by setting: (dose: 167.0 mg/kg/injection, schedule: Q01DX009 (ip), vehicle: saline with Tween-80) 100 % of control; (dose: 267.0 mg/kg/injection, schedule: Q01DX009 (ip), vehicle: saline with Tween-80) 113 % of control.

As to `CC(=O)Nc1ccc(/C=C\c2ccnc3ccccc23)cc1`, the T/C (dose: 25.0 mg/kg/injection, schedule: Q04DX002 (ip), vehicle: saline with Tween-80) was 109 % of control.

With `CC(C)(C=O)COC1OCN(C(C)(C)C)CC1(C)C` (centres undefined), the T/C by setting is: under setting [3], 104 % of control; under setting [4], 122 % of control.

Regarding `CCC(=O)OCC(=O)[C@]1(O)Cc2c(O)c3c(c(O)c2[C@@H](OC2CC(N)C(O)C(C)O2)C1)C(=O)c1c(OC)cccc1C3=O` (some centres undefined), the T/C (dose: 0.25 mg/kg/injection, schedule: Q01DX009 (ip), vehicle: saline) is 163 % of control; the T/C (dose: 0.5 mg/kg/injection, schedule: Q01DX009 (ip), vehicle: saline sonified) was 172 % of control; the T/C (dose: 0.5 mg/kg/injection, schedule: Q01DX009 (ip), vehicle: saline) was 174 % of control; the T/C (dose: 1.0 mg/kg/injection, schedule: Q01DX009 (ip), vehicle: saline sonified) is 168 % of control; the T/C (dose: 1.0 mg/kg/injection, schedule: Q01DX009 (ip), vehicle: saline) is 225 % of control; the T/C (dose: 2.0 mg/kg/injection, schedule: Q01DX009 (ip), vehicle: saline sonified) was 172 % of control. In addition, the T/C (dose: 2.0 mg/kg/injection, schedule: Q01DX009 (ip), vehicle: saline) was 252 % of control and the T/C (dose: 8.0 mg/kg/injection, schedule: Q01DX009 (ip), vehicle: saline) is 114 % of control.

Regarding `Cn1ccnc1CC(C)(O)c1ccccc1` (centres undefined), the T/C is 103 % of control (dose: 60.0 mg/kg/injection, schedule: Q01DX005 (ip), vehicle: saline with Tween-80); 104 % of control (dose: 120.0 mg/kg/injection, schedule: Q01DX005 (ip), vehicle: saline with Tween-80); 108 % of control (dose: 240.0 mg/kg/injection, schedule: Q01DX005 (ip), vehicle: saline with Tween-80).

With `O=C(NCCNc1ccccc1)C12CC3CC(CC(C3)C1)C2`, the T/C reads like this: (dose: 50.0 mg/kg/injection, schedule: Q01DX005 (ip), vehicle: Klucel (hydroxypropylcellulose) (HPC)) 100 % of control; (dose: 100.0 mg/kg/injection, schedule: Q01DX005 (ip), vehicle: Klucel (hydroxypropylcellulose) (HPC)) 95 % of control; (dose: 200.0 mg/kg/injection, schedule: Q01DX005 (ip), vehicle: Klucel (hydroxypropylcellulose) (HPC)) 95 % of control.

Consider `CC(NC(=O)OCc1ccccc1)C(=O)NC1C(O)OC(CO)C(O)C1O` (centres undefined), for which the T/C is 96 % of control under setting [1]; 100 % of control under setting [2]; 104 % of control (dose: 25.0 mg/kg/injection, schedule: Q01DX009 (ip), vehicle: water); 93 % of control (dose: 50.0 mg/kg/injection, schedule: Q01DX009 (ip), vehicle: water); 106 % of control (dose: 100.0 mg/kg/injection, schedule: Q01DX009 (ip), vehicle: water); 102 % of control (dose: 200.0 mg/kg/injection, schedule: Q01DX009 (ip), vehicle: water).
